# Measured values from patent publication US7700375B2, “Fluorescent labeling of specific protein targets in vitro and in vivo” (Valorisation-Recherche, LP, priority 2004, dated 2010).
# How the values were obtained:
# Solubility = assay type: physicochemical
# Procedure: (§1) Comparison of the fluorescent properties^34 of the four different parent fluorogens (and their corresponding thiol adducts) studied herein (see Table 2) substantiates our retention of compounds 13 and 20 as candidates for further tests with proteins.
# (§2) Finally, we wished to determine if fluorogens such as 13 and 20 were cytotoxic. […] Furthermore, even at 300 μM 20, the limit of its solubility in cell culture, 70% of COS cells were still viable (FIG. 8). […] The convenience of the application of this fluorescent labeling method is obvious from the low cytoxocity of 20, even at concentrations 30 times greater than those necessary for efficient labeling.
# mCys-Fos = target: T1, mCys-Fos (Homo sapiens, UniProt P01100, C204S); assay: Protein labeling in vitro, SDS-PAGE with UV illumination; assay type: biochemical; details: 0.242 mM protein, 0.5 mM of 20 or 0.05 mM of 13, 25° C. overnight
# T1 construct: the C99S mutant of a fragment of Fos; His-tag (N); made in house; host or cells: XL1-blue E. coli
# Procedure: (§3) As mentioned in the introduction, an α-helical protein was designed to bear two cysteine residues, separated by a distance complementary to that between the maleimide groups of the designated fluorogen. The protein chosen as a starting point for this design was the C99S mutant of a fragment of Fos,^21 a known α-helical protein^22 whose recombinant expression has been published.^23 Site-directed mutagenesis was then performed^20,35 to introduce a cysteine residue (L56C), separated by two turns of the α-helical motif from the native Cys49, positioning the protein's only two thiol groups approximately 10 Å apart.^36 Although at higher concentrations, Fos is known to form a homodimer,^22 the distance between the intermolecular cysteine residues in this putative homodimer would render their reaction with a single fluorogen molecule impossible. […]
# (§4) Purified mCys-Fos and diCys-Fos were then tested in vitro for their ability to react with fluorogens 13 and 20. After incubation of 0.242 mM protein with 0.5 mM of 20 or 0.05 mM of 13 at 25° C. overnight, glycerol was added and the reaction mixtures were analyzed by SDS-PAGE using UV illumination and then Coomassie blue staining. […]
# diCys-Fos [1] = target: T2, diCys-Fos (Homo sapiens, UniProt P01100, C204S/L161C); assay: as above; assay type: biochemical; design: the C99S mutant of a fragment of Fos; details: 0.242 mM protein, 0.5 mM of 20 or 0.05 mM of 13, 25° C. overnight
# Procedure: as §3, §4
# COS cells = assay: Cytotoxicity, MTT and PI assays; assay type: cell-based
# Procedure: as §2
# [2] = Fluorescence spectral properties of fluorogens and their ethanethiol adducts; assay type: physicochemical; details: 10:90 DMSO: water
# Procedure: For the application of this fluorogenic reaction to the detection of thiols and dithiols, two important criteria are the fluorescence intensity of the thiol addition product and the ratio of its fluorescence compared to its parent fluorogen. We studied the effect of electron withdrawing and donating substituants on these criteria by preparing the derivatives of fluorogen 4 shown in Scheme 1. Fluorogen 5, bearing an electron withdrawing ester group, was prepared according to a protocol similar to that used for fluorogen 4, but using an ester-substituted maleic anhydride derived by oxidation of dimethyl L-tartrate according to a published procedure.^31 Fluorogen 6 bears an electron donating methyl group and was obtained in similar yield by adaptation of the standard literature protocol,^25 using citraconic anhydride. The reaction of 5 and 6 with ethanethiol in DMSO led to the formation of thiol adducts 8 and 9, whose fluorescence was characterized as shown in Table 1. Even from this small series, certain tendencies are apparent. Increasing the electron donating capacity of the substituent appears to have a significant effect on the absorbance maximum corresponding to the wavelength of excitation, increasing by 37 nm from 8 to 9. Although the emission wavelength increases very slightly over the same series, the net effect on the Stokes shift is a significant decrease with increasing electron donating capacity of the substituent.
# as §1
# The following material were obtained from Aldrich and were used without further purification: 2-hydroxy-5-nitrobenzaldehyde, N-acetylglycine, maleic anhydride, p-nitrophenylacetic acid, L-aspartic acid dimethyl ester hydrochloride, citraconic anhydride, dimethyl L-tartrate, dimethyl malonate. All reactions were carried out under an atmosphere of dry nitrogen employing conventional bench-top techniques except for reactions with thiols. ^13C-NMR and ^1H-NMR spectra were recorded on AMXR400 or AMX300 spectrometers and were referenced to the residual proton or ^13C signal of the solvent. Mass spectra were determined by FAB+ ionization on an AutoSpecQ spectrometer at the Regional Mass Spectrometry Centre at the Université de Montréal. Infrared spectra were recorded on a Perkin-Elmer (FTIR) spectrometer. Melting points (uncorrected) were determined on a Unimelt Tomas-Hoover or on a Gallenkamp meting point apparatus. Fluorescence spectra were recorded using a Varian Cary Eclipse fluorimeter and gel electrophoresis was carried out on a SpectraPhoresis 100 apparatus.
# diCys-Fos [3] = target: T2, diCys-Fos; assay: Labeling in lysate of E. coli cells expressing diCys-Fos, SDS-PAGE; assay type: biochemical; details: overnight at 25° C.
# Procedure: The specificity of the dithiol addition reaction of 20 with diCys-Fos in the presence of other proteins was also confirmed through a simple in vitro experiment. The lysate of E. coli cells expressing diCys-Fos was allowed to react with 20 overnight at 25° C. prior to analysis by SDS-PAGE.
# diCys-Fos [4] = target: T2, diCys-Fos; assay: Protein labeling in living COS cells expressing diCys-Fos fused to RBD of Raf; assay type: cell-based; design: the C99S mutant of a fragment of Fos; expressed in transfected cells; host or cells: COS cells
# Procedure: The ultimate proof of principle for this method is its successful application to labeling a specific protein in living eukaryotic cells. To test for this potential, our diCys-Fos probe protein was genetically fused to RBD, the Ras-binding domain of Raf, and COS cells were then transfected with the expression plasmid for this fusion protein. A solution of 20 was then added to cultures of COS cells expressing diCys-Fos as well as mock COS cells transfected with an empty expression plasmid.
# T2 sequence (P01100 118-211 L161C/C204S limits assumed): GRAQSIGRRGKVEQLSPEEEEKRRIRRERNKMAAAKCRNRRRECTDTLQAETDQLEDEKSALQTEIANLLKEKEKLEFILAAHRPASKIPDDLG
# T1 sequence (P01100 118-211 C204S limits assumed): as the sequence (P01100 118-211 L161C/C204S limits assumed) above, with C44L counted along it
compound,measurement,setting,value
"COC(=O)C[C@@H](C(=O)OC)N1C(=O)c2cc(N3C(=O)C=CC3=O)cc3cc(N4C(=O)C=CC4=O)cc(c23)C1=O [Compound 20, N-(3,6-Dimaleimidyl-1,8-naphthalyl)-L-aspartic acid dimethyl ester]",solubility in water / aqueous DMSO,Solubility,soluble in aqueous solutions containing as little as 5% DMSO
same,solubility,"Solubility; cell culture, plasma or biological fluid, read-out: limit of solubility in cell culture",300 µM
same,fluorescent labeling of mCys-Fos,mCys-Fos,is not
same,fluorescent labeling of diCys-Fos,diCys-Fos [1],efficiently fluorescently labeled
same,viable COS cells,COS cells; 300 μM,70%
same,concentration with low cytotoxicity relative to that necessary for efficient labeling,COS cells; COS cells,30 times
same,percentage of viable COS cells,COS cells; concentrations of up to 30 μM,unaffected
same,Stokes shift,[2],67 nm
same,λem (emission band),[2],525-650 nm
same,"λem, wavelength corresponding to center of Full Width at Half Maximum of emission band",[2],578 nm
same,λexc,[2],511 nm
same,IF Ratio,[2]; ratio of areas under emission bands of fluorogen and thiol adduct,8.5
same,selectivity for diCys-Fos in the presence of other cytosolic proteins,diCys-Fos [3],selectivity of 20 for its designated target protein
same,fluorescence of COS cells expressing diCys-Fos vs mock COS cells,"diCys-Fos [4]; 10 μM, 20 minutes, room temperature",significant difference in fluorescence
same,cell permeability,diCys-Fos [4]; COS cells,confirming the cell permeability
